Data: patent US20240228501A1, “IMIDAZOLE-CONTAINING CONDENSED RING DERIVATIVE, PREPARATION METHOD THEREFOR, AND APPLICATION THEREOF IN MEDICINE” (CHANGCHUN GENESCIENCE PHARMACEUTICAL CO., LTD., priority 2021, published 2024)
Like-named read-outs stand apart in the source and are kept apart here.

Experiments:
human NK-3 receptor = target: T1, human NK-3 receptor (Homo sapiens, UniProt P29371); assay: Antagonistic activity on human NK-3 receptor in human NK-3R/HEK293 stably transfected cells (Fluo-4, FLIPR, Neurokinin B as agonist); type: cell-based; details: human NK-3R/HEK293 cells
T1 construct: expressed in transfected cells; host or cells: HEK293
T1 sequence (P29371 1-465): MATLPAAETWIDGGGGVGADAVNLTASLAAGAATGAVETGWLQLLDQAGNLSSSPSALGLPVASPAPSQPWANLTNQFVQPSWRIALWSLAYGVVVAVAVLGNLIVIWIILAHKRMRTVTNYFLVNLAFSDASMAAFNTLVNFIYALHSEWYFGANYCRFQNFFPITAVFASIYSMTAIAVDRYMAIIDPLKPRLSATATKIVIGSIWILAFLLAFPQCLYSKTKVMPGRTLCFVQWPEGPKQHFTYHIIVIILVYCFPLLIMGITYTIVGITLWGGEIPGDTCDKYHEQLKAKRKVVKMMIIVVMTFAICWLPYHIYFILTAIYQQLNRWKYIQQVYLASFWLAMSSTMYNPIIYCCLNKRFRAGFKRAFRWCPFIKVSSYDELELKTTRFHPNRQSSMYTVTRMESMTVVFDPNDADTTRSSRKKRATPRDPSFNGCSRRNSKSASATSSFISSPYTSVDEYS
Experimental: Test Example 1: Determination of Activity of Compounds of the Present Invention on Human NK-3 Receptor
This method is used to determine antagonistic effects of the compounds of the present invention on the activity of human NK-3 receptor proteins expressed in cell lines stably transfected with human NK-3R/HEK293.
2.1 The cell lines stably transfected with human NK-3R/HEK293 were inoculated in a 384-well cell culture plate at a inoculation density of 12,000 cells/well/25 μL, and cultured at 37° C. and 5% CO2 overnight;
2.2 20× Component A was frozen and thawed to room temperature, diluted 2× with Assay Buffer to working concentration, and kept at room temperature for later use;
2.3 The cell culture plate was equilibrated at room temperature for 10 min, the culture medium was removed, and 20 μL of Assay Buffer and 20 μL of 2× Component A […] were added, followed by centrifugation at 200 g at room temperature for 3-5 sec, and incubation at 37° C. for 2 h;
2.4 The compound was diluted 3 times with DMSO in 384 PP_DMSO plate, and then 240 nl/well of the compound was transferred into a working plate with Echo 550, centrifugated at 200 g at room temperature for 1 min; 40 μl of Assay Buffer was added into the working plate, centrifugated at 200 g at room temperature for 1 min, and then fully mixed in an oscillator at 2500 rpm for 20 min, and then centrifugated at 200 g at room temperature for 1 min for later use;
2.5 2.5 nM Neurokinin B TFA (6×) was prepared from Assay Buffer, 50 uL of which was transferred onto 3657 plate for later use;
2.6 The cell culture plate was taken out and left to stand at room temperature for 10 min, then […] the compound diluted in step 2.4 was added into corresponding wells, and the cell culture plate was left to stand at 25° C. for 30 min; and
2.7 10 μL of the compound diluted in step 2.5 was added into the corresponding experimental wells with FLIPR Tetra, and data was collected.
The antagonistic activity of the compounds of the present invention on the human NK-3 receptor was determined through the above experiments, to obtain inhibition curves of the compounds of the present invention and determine concentrations (IC50) of the corresponding compounds that inhibit 50% of the reference agonist.

[1] = Pharmacokinetic test in rats: plasma and brain concentration after gavage 3 mg/kg; type: in vivo; details: rat, oral, SD rats
Experimental: Test Example 4: Pharmacokinetic Test of Compounds of the Present Invention in Rats
(§1) To study in vivo pharmacokinetic behaviors of the compounds of the present invention in rats, and evaluate pharmacokinetic characteristics thereof.
An appropriate amount of sample was weighed, and ultrasonically prepared into a 0.3 mg/mL suspension for the gavage administration group as per a formula of 5% DMSO+10% Solutol+85% (20% SBE-β-CD).
SD rats were fasted overnight, and then administered by gavage at a dosage of 3 mg/kg respectively.
Blood and cerebrospinal fluid were collected at designed time points after administration, and then brain tissue was collected after cardiac perfusion with normal saline. Plasma was collected by centrifugation within 1 h, and then immediately transferred onto wet ice. Centrifugation conditions: 4-10° C., 8,000 rpm, 6 min. 4 h after administration, the animals were resumed for feeding/free access to water.
The concentrations of corresponding compounds in plasma and cerebrospinal fluid were detected by LC-MS/MS.

MDR1 = assay: In vitro brain model test: MDR1-MDCKII bidirectional permeability; type: in vitro ADME; details: dog; for Papp A→B at 2.5 h, 2 μM / Papp B→A at 2.5 h, 2 μM: MDCK-MDR1, pH 7.4, 2 μM, pH7.4; for efflux ratio at 2.5 h, 2 μM: MDCK-MDR1, pH 7.4, B to A / A to B, read-out: Efflux rate
Experimental: The test product was diluted from dimethyl sulfoxide stock solution to a concentration of 2 μM (dimethyl sulfoxide <1%) with a transfer buffer (HBSS containing 10 mM Hepes, pH7.4); and was applied to apical or basolateral cavities of the cell monolayer. Penetration of the test compound from the direction A to the direction B or from the direction B to the direction A was determined in duplicate. Digoxin was detected at 10 μM in the direction of A-B, or detected in the direction of B-A, while Nadolol and Metoprolol were detected at 2 μM in the direction of A-B in duplicate. The plate was cultivated in a CO2 incubator at 37±1° C. for 2.5 h with 5% CO2 at a saturated humidity without shaking. Further, the efflux rate of each compound was also determined. According to the peak area ratio of analyte/IS, the test product and the control product were quantitatively analyzed by LC-MS/MS.
After the transfer test, the monolayer integrity of cells was determined by a lucifer yellow exclusion assay. Buffer was removed from apical and basolateral cavities, and then 75 μL of 100 μM lucifer yellow and 250 μL of transfer buffer were added into the apical and basolateral cavities, respectively. The culture dish was cultivated at 37° C., 5% CO2, and saturated humidity for 30 min without shaking. After incubation for 30 min, 20 μL of lucifer yellow sample was extracted from the top, and then 60 μL of the transfer buffer was added. Then, 80 μL of lucifer yellow sample was extracted basolaterally. Relative Fluorescence Units (RFU) of lucifer yellow were measured at 425/528 nm (excitation/emission) with an Envision plate reader.

[2] = Pharmacokinetic test in rats (gavage 3 mg/kg, intravenous 1 mg/kg); type: in vivo; details: rat, plasma, SD rats; for Cmax: read-out: Blood concentration Cmax; for AUC: read-out: Curve area AUC; for half-life: read-out: Half life T1/2 (converted); for bioavailability: gavage 3 mg/kg vs intravenous 1 mg/kg, read-out: Oral bioavailability F (%)
Experimental: Test Example 2: Pharmacokinetic Test of Compounds of the present invention in Rats
as §1
An appropriate amount of sample was weighed, and ultrasonically prepared into a 0.3 mg/mL suspension for the gavage administration group; and was prepared into a 0.2 mg/mL suspension for the intravenous administration group as per a formula of 5% DMSO+10% Solutol+85% (20% SBE-β-CD).
SD rats were fasted overnight, and then administered by gavage at a dosage of 3 mg/kg and by intravenous injection at a dosage of 1 mg/kg, respectively.
0.1 mL of blood was collected before administration and at 5 min, 15 min, 30 min, 1 h, 2 h, 4 h, 8 h, and 24 h after administration, transferred into heparinized tubes, and centrifuged at 3500 rpm for 10 min to separate the plasma, which was stored at −20° C. 4 h after administration, the animals were resumed for feeding/free access to water.
Contents of the test compounds in plasma of the rats after gavage administration were determined by LC/MS/MS.

Row | SMILES | IC50 (human NK-3 receptor) [nM] | Papp A→B at 2.5 h, 2 μM (MDR1) [×10⁻⁶ cm/s] | Papp B→A at 2.5 h, 2 μM (MDR1) [×10⁻⁶ cm/s] | Cmax ([2]; po, gavage 3 mg/kg) [ng/mL] | AUC ([2]; po, gavage 3 mg/kg) [ng·h/mL] | half-life ([2]; po, gavage 3 mg/kg) [h] | AUC ([2]; intravenous injection 1 mg/kg) [ng·h/mL] | half-life ([2]; intravenous injection 1 mg/kg) [h] | efflux ratio at 2.5 h, 2 μM (MDR1) | bioavailability ([2]; po) [%] | other results
1 | Cc1nsc(-c2nnc3n2CCN(C(=O)c2ccc(F)cc2)[C@@H]3C)n1 [Fezolinetant, reference compound] | 734 | 26.2 | 28.4 | 2180 | 10100 | 3.22 | 2670 | 1.94 |  |  | concentration at 1 h ([1]; brain, sampling time 1 h, read-out: Brain conc.): 512 ± 88.4 ng/mL; concentration at 2 h ([1]; brain, sampling time 2 h, read-out: Brain conc.): 585 ± 117 ng/mL; concentration at 4 h ([1]; brain, sampling time 4 h, read-out: Brain conc.): 419 ± 37.1 ng/mL; Kp at 1 h ([1]; brain/plasma, sampling time 1 h, read-out: B/P ratio): 0.38; Kp at 2 h ([1]; brain/plasma, sampling time 2 h, read-out: B/P ratio): 0.46; Kp at 4 h ([1]; brain/plasma, sampling time 4 h, read-out: B/P ratio): 0.44; concentration at 1 h ([1]; plasma, sampling time 1 h, read-out: Plasma conc.): 1330 ± 177 ng/mL; concentration at 2 h ([1]; plasma, sampling time 2 h, read-out: Plasma conc.): 1280 ± 110 ng/mL; concentration at 4 h ([1]; plasma, sampling time 4 h, read-out: Plasma conc.): 961 ± 21 ng/mL
2 | Cc1nsc(-c2nc(-c3ccnc(F)c3)c3n2CCN(C(=O)c2ccc(F)cc2)[C@@H]3C)n1 [Compound 044, (R)-(4-fluorophenyl)(1-(2-fluoropyridin-4-yl)-8-methyl-3-(3-methyl-1,2,4-thiadiazol-5-yl)-5,6-dihydroimidazo[1,5-a]pyrazin-7 (8H)-yl)methanone] | 17 | 24 | 15.9 |  |  |  |  |  | 0.66 |  | 
3 | CC(=O)Nc1nc(-c2nc(C)ns2)n2c1[C@@H](C)N(C(=O)c1ccc(F)cc1)CC2 [Compound 034, (R)—N-(7-(4-fluorobenzoyl)-8-methyl-3-(3-methyl-1,2,4-thiadiazol-5-yl)-5,6,7,8-tetrahydroimidazo[1,5-a]pyrazin-1-yl)acetamide] | 30.4 |  |  | 1290 ± 133 | 5580 ± 241 | 3.92 ± 0.662 | 2240 ± 418 | 2.95 ± 0.855 |  | 83.1 | 
4 | Cc1nsc(-c2nc(N3CCCC3=O)c3n2CCN(C(=O)c2ccc(F)cc2)[C@@H]3C)n1 [Compound 068, (R)-1-(7-(4-fluorobenzoyl)-8-methyl-3-(3-methyl-1,2,4-thiadiazol-5-yl)-5,6,7,8-tetrahydroimidazo[1,5-a]pyrazin-1-yl)pyrrolidin-2-one] | 8.36 |  |  | 1030 ± 101 | 2890 ± 794 | 3.57 ± 1.39 | 1280 ± 264 | 1.02 ± 0.16 |  | 73.4 | 
5 | Cc1nsc(-c2nc(N3Cc4ccccc4C3=O)c3n2CCN(C(=O)c2ccc(F)cc2)[C@@H]3C)n1 [Compound 085, (R)-2-(7-(4-fluorobenzoyl)-8-methyl-3-(3-methyl-1,2,4-thiadiazol-5-yl)-5,6,7,8-tetrahydroimidazo[1,5-a]pyrazin-1-yl)isoindolin-1-one] | 12.8 | 28 | 18.7 |  |  |  |  |  | 0.67 |  | 
6 | Cc1nsc(-c2nc(-c3ccnc(F)c3F)c3n2CCN(C(=O)c2ccc(F)cc2)[C@@H]3C)n1 [Compound 074, (R)-(1-(2,3-difluoropyridin-4-yl)-8-methyl-3-(3-methyl-1,2,4-thiadiazol-5-yl)-5,6-dihydroimidazo[1,5-a]pyrazin-7 (8H)-yl)(4-fluorophenyl)methanone] | 13.6 | 22.9 | 16.1 |  |  |  |  |  | 0.7 |  | 
7 | Cc1nsc(-c2nc(N3C[C@H](F)CC3=O)c3n2CCN(C(=O)c2ccc(F)cc2)[C@@H]3C)n1 [Compound 107, (R)-4-fluoro-1-[(R)-7-(4-fluorobenzoyl)-8-methyl-3-(3-methyl-1,2,4-thiadiazol-5-yl)-5,6,7,8-tetrahydroimidazo[1,5-a]pyrazin-1-yl]pyrrolidin-2-one] | 15.4 |  |  | 348 ± 104 | 1860 ± 303 | 4.69 ± 1.18 | 842 ± 66.3 | 0.94 ± 0.19 |  | 65.6 | 
8 | Cc1nsc(-c2nc(-c3cc(F)ncc3O)c3n2CCN(C(=O)c2ccc(F)cc2)[C@@H]3C)n1 [Compound 165, (R)-(1-(2-fluoro-5-hydroxypyridin-4-yl)-8-methyl-3-(3-methyl-1,2,4-thiadiazol-5-yl)-5,6-dihydroimidazo[1,5-a]pyrazin-7 (8H)-yl)(4-fluorophenyl)methanone] |  | 19.2 | 12.2 |  |  |  |  |  | 0.64 |  | 
